According to patent publication US8124624B2, “Substituted sulfonamide compounds” (Gruenenthal GmbH, priority 2008, dated 2012):
Counter-ions that a name gives are not always drawn.

Assays:
human B1R = target: T1, human B1R (Homo sapiens, UniProt P46663); experiment: FLIPR Ca2+ influx assay, B1R antagonism, human (hB1R CHO K1 cells); assay type: cell-based; details: test substance 10 μM, CHO K1 cells stably transfected with human B1R, agonist Lys-Des-Arg9-bradykinin at EC80, % inhibition compared with maximum achievable inhibition; for inhibition at 10 µM: read-out: B1R antagonism, human [10 μM] % inhibition
T1 construct: expressed in transfected cells; host or cells: CHO K1 cells (hB1R cells)
T1 sequence (P46663 1-353): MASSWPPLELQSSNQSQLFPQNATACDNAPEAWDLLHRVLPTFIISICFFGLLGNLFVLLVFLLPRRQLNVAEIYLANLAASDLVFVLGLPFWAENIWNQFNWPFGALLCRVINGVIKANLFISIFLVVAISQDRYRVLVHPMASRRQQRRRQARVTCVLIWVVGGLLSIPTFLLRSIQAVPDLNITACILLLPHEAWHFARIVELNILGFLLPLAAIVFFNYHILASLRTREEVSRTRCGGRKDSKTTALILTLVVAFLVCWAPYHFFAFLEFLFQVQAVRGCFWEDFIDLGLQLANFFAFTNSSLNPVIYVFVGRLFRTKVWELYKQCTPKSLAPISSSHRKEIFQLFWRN
Summary of the method: (§1)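 CHO K1 cells stably expressing human or rat B1R were loaded with Fluo-4, and Ca^2+ fluorescence was read on a FLIPR. After 10–20 min with test substance, agonist was added at EC80: Lys-Des-Arg^9-bradykinin for hB1R, Des-Arg^9-bradykinin for rB1R. % inhibition is relative to maximal inhibition; IC50 from multiple concentrations, n=2–3, N≥2.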

B1R of the rat = target: T2, B1R of the rat (Rattus norvegicus, UniProt P97583); experiment: FLIPR Ca2+ influx assay, B1R antagonism, rat (rB1R CHO K1 cells); assay type: cell-based; details: test substance 10 μM, CHO K1 cells stably transfected with rat B1R, agonist Des-Arg9-bradykinin at EC80, % inhibition compared with maximum achievable inhibition; for inhibition at 10 µM: read-out: B1R antagonism, rat [10 μM] % inhibition
T2 construct: expressed in transfected cells; host or cells: CHO K1 cells (rB1R cells)
T2 sequence (P97583 1-337): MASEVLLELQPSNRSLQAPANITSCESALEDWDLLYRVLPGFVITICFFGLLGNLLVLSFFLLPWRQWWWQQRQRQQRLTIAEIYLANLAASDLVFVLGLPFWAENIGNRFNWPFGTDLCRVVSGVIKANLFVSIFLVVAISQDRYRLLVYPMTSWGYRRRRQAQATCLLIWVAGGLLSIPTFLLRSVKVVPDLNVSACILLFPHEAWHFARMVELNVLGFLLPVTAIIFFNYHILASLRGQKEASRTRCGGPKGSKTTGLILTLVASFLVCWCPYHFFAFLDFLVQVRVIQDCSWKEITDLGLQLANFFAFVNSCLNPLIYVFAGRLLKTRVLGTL
Summary of the method: as §1

With COc1cc(C)c(S(=O)(=O)N(CCOCC(=O)N2CCC(CCCN3CCCC3)(c3cccnc3)CC2)Cc2ccccc2)c(C)c1 [Example 38, N-Benzyl-4-Methoxy-2,6-dimethyl-N-[2-[2-oxo-2-[4-pyridin-3-yl-4-(3-pyrrolidin-1-yl-propyl)-piperidin-1-yl]-ethoxy]-ethyl]-benzenesulfonic acid amide] as the compound, how does the “B1R antagonism, human [10 μM] % inhibition” value (human B1R) read?
Its value is 100%.

And the “B1R antagonism, rat [10 μM] % inhibition” value (B1R of the rat)?
Its value is 101%.

Which inhibition at 10 µM (human B1R) does the source give for O=C(COCC1CCCCN1S(=O)(=O)c1ccccc1C(F)(F)F)N1CCC(CCCN2CCCC2)(c2cccnc2)CC1 (stereo not shown) [Example 41, 1-[4-Pyridin-3-yl-4-(3-pyrrolidin-1-yl-propyl)-piperidin-1-yl]-2-[[1-[[2-(trifluoromethyl)-phenyl]sulfonyl]-piperidin-2-yl]-methoxy]-ethanone] here?
The inhibition at 10 µM was 100%.

What about the inhibition at 10 µM (B1R of the rat) of the same compound?
The inhibition at 10 µM was 104%.

O=C(COCC1CCCCN1S(=O)(=O)c1ccccc1C(F)(F)F)N1CCC(CCCN2CCCC2)(c2cccnc2)CC1 (stereo not shown) [Example 42, 1-[4-Pyridin-3-yl-4-(3-pyrrolidin-1-yl-propyl)-piperidin-1-yl]-2-[[1-[[2-(trifluoromethyl)-phenyl]sulfonyl]-piperidin-2-yl]-methoxy]-ethanone] was tested. Which “B1R antagonism, human [10 μM] % inhibition” value (human B1R) did it give?
The value was 100%.

What about the “B1R antagonism, rat [10 μM] % inhibition” value (B1R of the rat) of the same compound?
The value was 102%.

How did the inhibition at 10 µM (human B1R) turn out when COc1cc(C)c(S(=O)(=O)N(CCOCC(=O)N2CCC(CCCN3CCCC3)(c3cccnc3)CC2)c2ccccc2)c(C)c1 [Example 48, 4-Methoxy-2,6-Dimethyl-N-[2-[2-oxo-2-[4-pyridin-3-yl-4-(3-pyrrolidin-1-yl-propyl)-piperidin-1-yl]-ethoxy]-ethyl]-N-phenyl-benzenesulfonic acid amide] was run?
Its inhibition at 10 µM is 100%.

And the inhibition at 10 µM (B1R of the rat)?
The inhibition at 10 µM was 103%.

COc1cc(C)c(S(=O)(=O)N2c3ccccc3CCC2COCC(=O)N2CCC(CCCN3CCCC3)(c3cccnc3)CC2)c(C)c1 (stereo not shown) [Example 53, 2-[[1-[(4-Methoxy-2,6-dimethyl-phenyl)sulfonyl]-1,2,3,4-tetrahydro-quinolin-2-yl]-methoxy]-1-[4-pyridin-3-yl-4-(3-pyrrolidin-1-yl-propyl)-piperidin-1-yl]-ethanone] was tested. Which inhibition at 10 µM (human B1R) did it give?
Its inhibition at 10 µM is 100%.

What about the inhibition at 10 µM (B1R of the rat) of the same compound?
The inhibition at 10 µM was 102%.

How did the inhibition at 10 µM (human B1R) turn out when COc1cc(C)c(S(=O)(=O)N2CCCCC2CCCC(=O)N2CCC(CCCN3CCCC3)(c3cccnc3)CC2)c(C)c1 (stereo not shown) [Example 60, 4-[1-[(4-Methoxy-2,6-dimethyl-phenyl)sulfonyl]-piperidin-2-yl]-1-[4-pyridin-3-yl-4-(3-pyrrolidin-1-yl-propyl)-piperidin-1-yl]-butan-1-one] was run?
Its inhibition at 10 µM is 100%.

And the inhibition at 10 µM (B1R of the rat)?
The inhibition at 10 µM was 104%.

What does the source list for COc1cc(C)c(S(=O)(=O)N2CCCCC2CCCC(=O)N2CCC(CCCN3CCCC3)(c3cccnc3)CC2)c(C)c1 (stereo not shown) [Example 61, 4-[1-[(4-Methoxy-2,6-dimethyl-phenyl)sulfonyl]-piperidin-2-yl]-1-[4-pyridin-3-yl-4-(3-pyrrolidin-1-yl-propyl)-piperidin-1-yl]-butan-1-one]?
B1R antagonism, human [10 μM] % inhibition (human B1R): 100%; B1R antagonism, rat [10 μM] % inhibition (B1R of the rat): 103%

How did the inhibition at 10 µM (human B1R) turn out when COc1cc(C)c(S(=O)(=O)N2c3ccccc3OCC2COCC(=O)N2CCC(CCCN3CCCC3)(c3cccnc3)CC2)c(C)c1 (stereo not shown) [Example 67, 2-[[4-[(4-Methoxy-2,6-dimethyl-phenyl)sulfonyl]-3,4-dihydro-2H-[1,4]benzoxazin-3-yl]-methoxy]-1-[4-pyridin-3-yl-4-(3-pyrrolidin-1-yl-propyl)-piperidin-1-yl]-ethanone] was run?
Its inhibition at 10 µM is 100%.

What about the inhibition at 10 µM (B1R of the rat) of the same compound?
The inhibition at 10 µM was 102%.

COc1cc(C)c(S(=O)(=O)N2c3ccccc3OCC2COCC(=O)N2CCC(CCCN3CCCC3)(c3cccnc3)CC2)c(C)c1 (stereo not shown) [Example 68, 2-[[4-[(4-Methoxy-2,6-dimethyl-phenyl)sulfonyl]-3,4-dihydro-2H-[1,4]benzoxazin-3-yl]-methoxy]-1-[4-pyridin-3-yl-4-(3-pyrrolidin-1-yl-propyl)-piperidin-1-yl]-ethanone] was tested. Which “B1R antagonism, human [10 μM] % inhibition” value (human B1R) did it give?
Its value is 100%.

And the “B1R antagonism, rat [10 μM] % inhibition” value (B1R of the rat)?
Its value is 101%.

How did the inhibition at 10 µM (human B1R) turn out when COc1cc(C)c(S(=O)(=O)N(CCOCC(=O)N2CCC(CCCN3CCCC3)(c3cccnc3)CC2)Cc2cnc3ccccc3c2)c(C)c1 [Example 71, 4-Methoxy-2,6-Dimethyl-N-[2-[2-oxo-2-[4-pyridin-3-yl-4-(3-pyrrolidin-1-yl-propyl)-piperidin-1-yl]-ethoxy]-ethyl]-N-(quinolin-3-yl-methyl)-benzenesulfonic acid amide] was run?
Its inhibition at 10 µM is 100%.

What about the inhibition at 10 µM (B1R of the rat) of the same compound?
Its inhibition at 10 µM is 103%.

What does the source list for Cc1cccc(Cl)c1S(=O)(=O)N1c2ccccc2OCC1COCC(=O)N1CCC(CCCN2CCCC2)(c2cccnc2)CC1 (stereo not shown) [Example 72, 2-[[4-[(2-Chloro-6-methyl-phenyl)sulfonyl]-3,4-dihydro-2H-[1,4]benzoxazin-3-yl]-methoxy]-1-[4-pyridin-3-yl-4-(3-pyrrolidin-1-yl-propyl)-piperidin-1-yl]-ethanone]?
inhibition at 10 µM (human B1R): 100%; inhibition at 10 µM (B1R of the rat): 103%

Which results are given for O=C(COCC1COc2ccccc2N1S(=O)(=O)c1ccccc1C(F)(F)F)N1CCC(CCCN2CCCC2)(c2cccnc2)CC1 (stereo not shown) [Example 74, 1-[4-Pyridin-3-yl-4-(3-pyrrolidin-1-yl-propyl)-piperidin-1-yl]-2-[[4-[[2-(trifluoromethyl)-phenyl]sulfonyl]-3,4-dihydro-2H-[1,4]benzoxazin-3-yl]-methoxy]-ethanone]?
inhibition at 10 µM (human B1R): 100%; B1R antagonism, rat [10 μM] % inhibition (B1R of the rat): 93%

Which results are given for Cc1cccc(Cl)c1S(=O)(=O)N(CCOCC(=O)N1CCC(CCCN2CCCC2)(c2cccc(Cl)c2)CC1)C1CC1 [Example 77, 2-Chloro-N-[2-[2-[4-(3-chlorophenyl)-4-(3-pyrrolidin-1-yl-propyl)-piperidin-1-yl]-2-oxo-ethoxy]-ethyl]-N-cyclopropyl-6-methyl-benzenesulfonic acid amide]?
inhibition at 10 µM (human B1R): 100%; inhibition at 10 µM (B1R of the rat): 92%

For Cc1cccc(Cl)c1S(=O)(=O)N(CCOCC(=O)N1CCC(CCCN2CCCC2)(c2cccc(C(F)(F)F)c2)CC1)C1CC1 [Example 78, 2-Chloro-N-cyclopropyl-6-methyl-N-[2-[2-oxo-2-[4-(3-pyrrolidin-1-yl-propyl)-4-[3-(trifluoromethyl)phenyl]-piperidin-1-yl]-ethoxy]-ethyl]-benzenesulfonic acid amide], which inhibition at 10 µM (human B1R) is on record?
The inhibition at 10 µM was 97%.

And the inhibition at 10 µM (B1R of the rat)?
Its inhibition at 10 µM is 92%.

With Cc1cccc(Cl)c1S(=O)(=O)N(CCOCC(=O)N1CCC(CCCN2CCCC2)(c2cccc(F)c2)CC1)C1CC1 [Example 79, 2-Chloro-N-cyclopropyl-N-[2-[2-[4-(3-fluorophenyl)-4-(3-pyrrolidin-1-yl-propyl)-piperidin-1-yl]-2-oxo-ethoxy]-ethyl]-6-methyl-benzenesulfonic acid amide] as the compound, how does the inhibition at 10 µM (human B1R) read?
The inhibition at 10 µM was 100%.

What about the inhibition at 10 µM (B1R of the rat) of the same compound?
Its inhibition at 10 µM is 103%.

Which inhibition at 10 µM (human B1R) does the source give for COc1cc(C)c(S(=O)(=O)N2CCCC[C@H]2COCC(=O)N2CCC(CCN3CCCC3)(c3cccnc3)CC2)c(C)c1 [Example 80, 2-[[(2S)-1-[(4-Methoxy-2,6-dimethyl-phenyl)sulfonyl]-piperidin-2-yl]-methoxy]-1-[4-pyridin-3-yl-4-(2-pyrrolidin-1-yl-ethyl)-piperidin-1-yl]-ethanone hydrochloride] here?
The inhibition at 10 µM was 100%.

What about the inhibition at 10 µM (B1R of the rat) of the same compound?
Its inhibition at 10 µM is 104%.

COc1cc(C)c(S(=O)(=O)N2CCCC[C@H]2COCC(=O)N2CCC(CCCN3CCCC3)(c3cccnc3)CC2)c(C)c1 [Example 81, 2-[[(2S)-1-[(4-Methoxy-2,6-dimethyl-phenyl)sulfonyl]-piperidin-2-yl]-methoxy]-1-[4-pyridin-3-yl-4-(3-pyrrolidin-1-yl-propyl)-piperidin-1-yl]-ethanone hydrochloride] was tested. Which inhibition at 10 µM (human B1R) did it give?
Its inhibition at 10 µM is 100%.

And the inhibition at 10 µM (B1R of the rat)?
Its inhibition at 10 µM is 102%.
